Reference: ChEMBL document CHEMBL5042556, “Lead Optimization to Advance Protease-Activated Receptor-1 Antagonists in Early Discovery” (J Med Chem, 2022)

Experiments:
[1] = target: Voltage-gated inwardly rectifying potassium channel KCNH2 (Homo sapiens, UniProt Q12809); assay: Inhibition of [35S]MK-499 binding to hERG expressed in HEK293 cells; type: toxicity, cell-based
[2] = target: T1, Proteinase-activated receptor 1 (Homo sapiens, UniProt P25116); assay: Antagonist activity at human PAR-1 expressed in HEK293 cells assessed as reduction in TRAP induced calcium signal at 3 uM by FLIPR analysis; type: functional, cell-based
T1 sequence (P25116 whole entry): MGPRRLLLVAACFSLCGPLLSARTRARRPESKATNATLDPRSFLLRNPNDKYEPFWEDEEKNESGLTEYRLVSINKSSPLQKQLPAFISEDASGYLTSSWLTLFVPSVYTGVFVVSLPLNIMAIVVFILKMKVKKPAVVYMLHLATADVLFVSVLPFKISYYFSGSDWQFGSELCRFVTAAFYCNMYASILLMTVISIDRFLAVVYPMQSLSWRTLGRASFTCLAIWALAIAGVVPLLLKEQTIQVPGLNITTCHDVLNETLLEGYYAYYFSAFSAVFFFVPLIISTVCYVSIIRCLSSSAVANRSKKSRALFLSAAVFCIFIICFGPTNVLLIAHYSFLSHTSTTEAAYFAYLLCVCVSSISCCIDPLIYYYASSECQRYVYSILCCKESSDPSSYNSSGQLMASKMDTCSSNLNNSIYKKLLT

[3] = Clearance in cynomolgus monkey at 0.3 mg/kg, iv; type: ADME, organism-based, Macaca fascicularis; conditions: in vivo
[4] = Unbound volume of distribution in dog at 0.3 mg/kg, iv; type: ADME, organism-based, Canis lupus familiaris; conditions: in vivo
[5] = Dose normalized Cmax in Sprague-Dawley rat at 3 mg/kg, po; type: ADME, organism-based; conditions: in vivo
[6] = Dose normalized AUC in Sprague-Dawley rat at 30 mg/kg, po; type: ADME, organism-based; conditions: in vivo
[7] = Oral bioavailability in cynomolgus monkey at 1 mg/kg,; type: ADME, organism-based, Macaca fascicularis; conditions: in vivo
[8] = Toxicity in rat assessed as non-toxic AUC for tissue toxicity at 30 mg/kg; type: organism-based; conditions: in vivo
[9] = Clearance in dog hepatocyte measured per 10^6 cells; type: ADME, cell-based, Canis lupus familiaris; conditions: hepatocytes
[10] = Toxicity in rat assessed as non-toxic AUC for liver bioactivation at 30 mg/kg; type: organism-based; conditions: in vivo
[11] = Oral bioavailability in dog at 1 mg/kg; type: ADME, organism-based, Canis lupus familiaris; conditions: in vivo
[12] = Unbound clearance in rat at 3 mg/kg, iv; type: ADME, organism-based; conditions: in vivo
[13] = Volume of distribution in rat at 0.3 mg/kg, iv; type: ADME, organism-based; conditions: in vivo
[14] = Clearance in rat at 3 mg/kg, iv; type: ADME, organism-based; conditions: in vivo
[15] = Clearance in rat hepatocyte measured per 10^6 cells; type: ADME, cell-based; conditions: hepatocytes
[16] = Unbound volume of distribution in cynomolgus monkey at 0.3 mg/kg, iv; type: ADME, organism-based, Macaca fascicularis; conditions: in vivo
[17] = Clearance in mouse hepatocyte measured per 10^6 cells; type: ADME, cell-based; conditions: hepatocytes
[18] = Clearance in dog at 0.3 mg/kg, iv; type: ADME, organism-based, Canis lupus familiaris; conditions: in vivo
[19] = Ex vivo inhibition of PAR-1 in cynomolgus monkey whole blood assessed as inhibition of TRAP-induced platelet aggregation at 1 mg/kg, po measured after 24 hrs; type: functional; conditions: Macaca fascicularis
[20] = Apparent permeability in MDCKII-LE cells; type: ADME, cell-based, Canis lupus familiaris; conditions: dog, MDCK
[21] = Dose normalized AUC in Sprague-Dawley rat at 3 mg/kg, po; type: ADME, organism-based; conditions: in vivo
[22] = MRT in cynomolgus monkey at 1 mg/kg, iv; type: ADME, organism-based, Macaca fascicularis; conditions: in vivo
[23] = Plasma protein binding in dog assessed as unbound fraction; type: ADME, cell-free, Canis lupus familiaris
[24] = Cmax in Sprague-Dawley rat at 3 mg/kg, po; type: ADME, organism-based; set-up: route oral, dose 3 mg/kg; conditions: in vivo
[25] = Unbound clearance in cynomolgus monkey at 0.3 mg/kg, iv; type: ADME, organism-based, Macaca fascicularis; conditions: in vivo
[26] = AUC in Sprague-Dawley rat at 10 mg/kg, po; type: ADME, organism-based; set-up: dose 10 mg/kg; conditions: in vivo
[27] = Volume of distribution in cynomolgus monkey at 0.3 mg/kg, iv; type: ADME, organism-based, Macaca fascicularis; conditions: in vivo
[28] = Plasma protein binding in rat assessed as unbound fraction; type: ADME, cell-free
[29] = Clearance in human hepatocyte measured per 10^6 cells; type: ADME, cell-based; conditions: hepatocytes
[30] = Oral bioavailability in rat at 10 mg/kg; type: ADME, organism-based; conditions: in vivo
[31] = MRT in dog at 0.3 mg/kg, iv; type: ADME, organism-based, Canis lupus familiaris; conditions: in vivo
[32] = Volume of distribution in dog at 0.3 mg/kg, iv; type: ADME, organism-based, Canis lupus familiaris; conditions: in vivo
[33] = Plasma protein binding in cynomolgus monkey assessed as unbound fraction; type: ADME, cell-free, Macaca fascicularis
[34] = AUC in Sprague-Dawley rat at 30 mg/kg, po; type: ADME, organism-based; set-up: dose 30 mg/kg; conditions: in vivo
[35] = AUC in Sprague-Dawley rat at 3 mg/kg, po; type: ADME, organism-based; set-up: dose 3 mg/kg; conditions: in vivo
[36] = AUC in Sprague-Dawley rat at 50 mg/kg, po; type: ADME, organism-based; set-up: dose 50 mg/kg; conditions: in vivo
[37] = Dose normalized Cmax in Sprague-Dawley rat at 30 mg/kg, po; type: ADME, organism-based; conditions: in vivo
[38] = Dose normalized AUC in Sprague-Dawley rat at 10 mg/kg, po; type: ADME, organism-based; conditions: in vivo
[39] = MRT in rat at 3 mg/kg, iv; type: ADME, organism-based; conditions: in vivo
[40] = MRT in rat at 1 mg/kg, iv; type: ADME, organism-based; conditions: in vivo
[41] = Cmax in Sprague-Dawley rat at 10 mg/kg, po; type: ADME, organism-based; set-up: route oral, dose 10 mg/kg; conditions: in vivo
[42] = Ex vivo inhibition of PAR-1 in cynomolgus monkey whole blood assessed as inhibition of TRAP-induced platelet aggregation at 0.3 mg/kg, po measured after 24 hrs; type: functional; conditions: Macaca fascicularis
[43] = Dose normalized AUC in Sprague-Dawley rat at 50 mg/kg, po; type: ADME, organism-based; conditions: in vivo
[44] = Unbound volume of distribution in rat at 3 mg/kg, iv; type: ADME, organism-based; conditions: in vivo
[45] = Dose normalized Cmax in Sprague-Dawley rat at 50 mg/kg, po; type: ADME, organism-based; conditions: in vivo
[46] = Dose normalized Cmax in Sprague-Dawley rat at 10 mg/kg, po; type: ADME, organism-based; conditions: in vivo
[47] = Cmax in Sprague-Dawley rat at 50 mg/kg, po; type: ADME, organism-based; set-up: route oral, dose 50 mg/kg; conditions: in vivo
[48] = Cmax in Sprague-Dawley rat at 30 mg/kg, po; type: ADME, organism-based; set-up: route oral, dose 30 mg/kg; conditions: in vivo
[49] = MRT in cynomolgus monkey at 0.3 mg/kg, iv; type: ADME, organism-based, Macaca fascicularis; conditions: in vivo
[50] = MRT in rat at 0.5 mg/kg, iv; type: ADME, organism-based; conditions: in vivo
[51] = MRT in cynomolgus monkey at 0.3 mg/kg, po; type: ADME, organism-based, Macaca fascicularis; conditions: in vivo

Sequence of Voltage-gated inwardly rectifying potassium channel KCNH2 (Q12809 whole entry): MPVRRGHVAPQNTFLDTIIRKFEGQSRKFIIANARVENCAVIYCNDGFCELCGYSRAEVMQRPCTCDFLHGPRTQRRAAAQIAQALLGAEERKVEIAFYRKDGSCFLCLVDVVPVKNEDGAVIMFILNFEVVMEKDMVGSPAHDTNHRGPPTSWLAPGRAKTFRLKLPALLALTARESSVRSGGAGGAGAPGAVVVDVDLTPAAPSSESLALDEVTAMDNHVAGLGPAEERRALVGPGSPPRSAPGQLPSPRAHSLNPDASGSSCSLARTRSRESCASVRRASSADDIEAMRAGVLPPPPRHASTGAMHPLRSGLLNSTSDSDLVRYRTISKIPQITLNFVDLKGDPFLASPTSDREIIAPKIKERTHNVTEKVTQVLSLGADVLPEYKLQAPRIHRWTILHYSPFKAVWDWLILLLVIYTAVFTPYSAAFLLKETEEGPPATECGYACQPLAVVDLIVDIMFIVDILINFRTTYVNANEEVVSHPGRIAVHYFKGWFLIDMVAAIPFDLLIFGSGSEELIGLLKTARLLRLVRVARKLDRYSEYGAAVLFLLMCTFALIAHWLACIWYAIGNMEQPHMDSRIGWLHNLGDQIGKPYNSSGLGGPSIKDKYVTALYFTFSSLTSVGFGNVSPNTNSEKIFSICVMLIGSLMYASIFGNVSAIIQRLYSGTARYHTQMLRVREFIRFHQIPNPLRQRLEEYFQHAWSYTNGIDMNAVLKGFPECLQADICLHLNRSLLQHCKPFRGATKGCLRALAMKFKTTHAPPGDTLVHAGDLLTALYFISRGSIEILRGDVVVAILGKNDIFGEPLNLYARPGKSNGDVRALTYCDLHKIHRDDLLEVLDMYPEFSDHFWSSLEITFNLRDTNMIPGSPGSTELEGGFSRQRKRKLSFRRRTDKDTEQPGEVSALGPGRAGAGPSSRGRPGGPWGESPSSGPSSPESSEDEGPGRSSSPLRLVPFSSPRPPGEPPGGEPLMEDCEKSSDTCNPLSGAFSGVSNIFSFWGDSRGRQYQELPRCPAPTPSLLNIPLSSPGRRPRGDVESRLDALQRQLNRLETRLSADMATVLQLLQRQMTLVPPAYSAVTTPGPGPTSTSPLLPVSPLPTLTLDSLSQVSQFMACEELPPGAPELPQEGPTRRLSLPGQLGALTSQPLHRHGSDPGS

For `C[C@@H]1[C@@H](C)[C@@H]2CN(C)C[C@@]23C(=O)O[C@H](C)[C@H]3[C@H]1/C=C/c1ccc(-c2ccccc2C#N)cn1`, the IC50 [1] was 14800 nM and the IC50 [2] was 28 nM.

`C[C@H]1OC(=O)[C@]2(N)CC(F)(F)[C@@H](C)[C@H](/C=C/c3ccc(-c4ccccc4C#N)cn3)[C@H]12` gave a clearance [3] of 12 mL/min/kg, a Vdu [4] of 41 L/kg and a Cmax/dose [5] of 0.12 µM. It also gave an AUCt/dose [6] of 3.2 µM·h, a bioavailability [7] of 37% and an AUC [8] of 44 µM·h. For the same molecule, the CLint [9] was 2 µL/min/1e6 cells, the AUC [10] was 44 µM·h and the bioavailability [11] was 100%. For the same molecule, the CL free [12] was 352 mL/min/kg, the Vd [13] was 3.6 L/kg and the clearance [14] was 31 mL/min/kg. It also gave a CLint [15] of 13 µL/min/1e6 cells, a Vdu [16] of 17 L/kg and a CLint [17] of 3.3 µL/min/1e6 cells. The clearance [18] was 5.9 mL/min/kg, the inhibition in vivo at 1 mg/kg [19] was 100% and the Papp [20] was 38.3 ×10⁻⁶ cm/s. For the same molecule, the AUCt/dose [21] was 0.44 µM·h, the MRT [22] was 24 h and the fraction unbound [23] was 0.15. For the same molecule, the Cmax [24] was 0.36 µM, the CL free [25] was 12 mL/min/kg and the AUC [26] was 12.1 µM·h. It also gave a Vd [27] of 2.5 L/kg, a fraction unbound [28] of 0.09 and a CLint [29] of 1.1 µL/min/1e6 cells. For the same molecule, the bioavailability [30] was 54%, the MRT [31] was 18 h and the Vd [32] was 6.3 L/kg. The fraction unbound [33] was 0.15, the AUC [34] was 97 µM·h and the AUC [35] was 1.31 µM·h. It also gave an AUC [36] of 191 µM·h, a Cmax/dose [37] of 0.4 µM and an IC50 [2] of 7 nM. The AUCt/dose [38] was 1.2 µM·h, the MRT [39] was 1.9 h and the MRT [40] was 1.4 h. It also gave a Cmax [41] of 5.6 µM, an inhibition in vivo at 0.3 mg/kg [42] of 100% and an AUCt/dose [43] of 3.8 µM·h. For the same molecule, the Vdu [44] was 41 L/kg, the Cmax/dose [45] was 0.56 µM and the Cmax/dose [46] was 0.56 µM. The Cmax [47] was 28 µM and the Cmax [48] was 12 µM.

`C[C@H]1NC(=O)[C@]2(N)CC(F)(F)[C@@H](C)[C@H](/C=C/c3ccc(-c4ccccc4C#N)cn3)[C@H]12` showed an IC50 [1] of 33000 nM, an IC50 [2] of 6 nM and an MRT [49] of 38.4 h. The MRT [50] was 2.7 h.

In the case of `C[C@H]1OC(=O)[C@@H]2CC(F)(F)[C@@H](C)[C@H](c3ccc(-c4cccc(F)c4)cn3)[C@H]12`, the IC50 [2] is reported as 5 nM.

`C[C@H]1OC(=O)[C@]2(O)CC(F)(F)[C@@H](C)[C@H](/C=C/c3ccc(-c4cccc(F)c4)cn3)[C@H]12` gave an IC50 [1] of 29000 nM, an MRT [51] of 68 h and an IC50 [2] of 8 nM.

`CNC(=O)N1C[C@H]2[C@H](C)[C@@H](C)[C@H](/C=C/c3ccc(-c4ccccc4C#N)cn3)[C@@H]3[C@@H](C)OC(=O)[C@@]32C1` showed an IC50 [1] of 50000 nM and an IC50 [2] of 7 nM.

For `CC1=NO[C@@]2(C1)C[C@H]1C(=O)O[C@H](C)[C@H]1[C@@H](c1ccc(-c3cccc(F)c3)cn1)[C@@H]2C`, the IC50 [2] was 134 nM.

With `C[C@H]1OC(=O)[C@]2(O)CC(F)(F)[C@@H](C)[C@H](/C=C/c3ccc(-c4ccccc4C#N)cn3)[C@H]12` the MRT [51] was > 20 h and the MRT [40] was 20 h.
